The ED50 is the dose at which the effect has come halfway, by size or by number of responders. Read a low ED50 as greater potency.

This note sets out measurements from patent US4604239A, “Antibiotics” (Eli Lilly and Company, priority 1985, dated 1986).

One data set concerns Streptococcus faecalis. Briefly: agar-dilution MIC. Type of data set: cell-based. Conditions: Streptococcus faecalis X66; Table 7.
The subject of another data set is Neisseria sp. Briefly: agar-dilution MIC. Type of data set: cell-based. Conditions: Table 10. On the procedure: The test results are recorded in Table 10, which follows.
The next data set has as its system Viridans streptococcus. Kind of data set: agar-dilution MIC. Type of data set: cell-based. Conditions: Table 11.
Another data set concerns Shigella flexneri. Conditions: Shigella flexneri SH-4; Table 11. The source says: The agar-dilution procedure described by the International Collaborative study (ICS) group was used to determine the minimum inhibitory concentrations (MIC's).
The subject of the next data set is Bacteroides corrodens. Briefly: agar-dilution MIC. Conditions: B. corrodens 1874; 24-hour; Table 12. Type of data set: cell-based. The source says: (§1) The A41030 antibiotics, factors A, B, and C, are active against a genus of anaerobic bacteria identified as Bacteroides sp., the 24-hour MIC values being determined by the agar-dilution method, and are set forth in Table 12, which follows.

Data set [1] relates to Bacteroides vulgatis. Briefly: agar-dilution MIC. Type of data set: cell-based. The settings on record: B. vulgatis 1563; 24-hour; Table 12.
Description: as §1

The subject of a further data set is Clostridium perfringens. Type of data set: cell-based. The settings on record: Clostridium perfringens 81; Table 14.
In data set [2] the test system is Peptostreptococcus intermedius. Briefly: agar-dilution MIC. Type of data set: cell-based.
The subject of a further data set is Fusobacterium symbiosum. Briefly: agar-dilution MIC. Type of data set: cell-based. The settings on record: Fusobacterium symbiosum 1470; Table 14.
The test system of data set [3] is Streptococcus sp. Group B. Kind of data set: agar-dilution MIC. Type of data set: cell-based. The settings on record: end point after 24 hours, Table 18. The source says:
(§2) The in vitro activity of antibiotic A41030 factors A and B against a number of representative aerobic, gram-positive bacteria, including Streptococcus sp. Group D, has been determined using a standard agar-dilution assay.

For data set [4], the system named is Haemophilus parainfluenzae. Briefly: agar-dilution MIC. Type of data set: cell-based. The settings on record: end point after 24 hours, Table 18.
A further data set deals with Staph. aureus. Briefly: experimental bacterial infection in mice. Conditions: two doses subcutaneously. Type of data set: in vivo. On the procedure: (§3) All of the A41030 factors tested have shown in vivo antimicrobial activity against experimental bacterial infections. When two doses of test compound were administered subcutaneously to mice in illustrative infections, the activity observed is measured as an ED50 value [effective dose in mg./kg. to protect fifty percent of the test animals: See Warren Wick, et al., J. Bacteriol. 81, 233-235 (1961)].

In another data set the test system is rumen fluid. Kind of data set: in vitro rumen fluid fermentation, volatile fatty acids. Also noted: species or system steer. Conditions: 16 hours at 38° C. An excerpt:
Rumen fluid was obtained from a steer having a surgically-installed fistula opening into the rumen. The steer was maintained on a high-grain ration, the composition of which follows: A sample of rumen fluid was strained through 4 layers of cheesecloth and the filtrate was collected in a vacuum bottle. The particulate matter retained by the cheesecloth was resuspended in enough physiological buffer to return it to the original volume of the rumen fluid, and the suspension was again strained through cheesecloth. The buffer used is described below: The two filtrates were pooled in a separatory funnel and allowed to stand till particulate matter rose to the top. The clear layer was then separated and diluted 1:1 with the same buffer, and adjusted to pH 7.0. Ten ml. of the diluted rumen fluid thus prepared was placed in a 25 ml. flask with 90 mg. of finely-powdered high-grain ration, the composition of which is described above. The compound to be tested was weighed out and dissolved in the appropriate solvent, supra. The solution was placed on the finely-powdered ration in each test flask and dried. Two sets of four untreated control flasks each were also prepared. One set of four untreated control flasks was incubated for 16 hours at 38° C. with the test flasks. […] Fermentation in the incubated test and control flasks was stopped at the end of 16 hours by addition of 2 ml. of 25 percent metaphosphoric acid to each flask. All of the samples were allowed to settle, and the supernatant was analyzed by gas chromatographic methods for acetate, propionate, and butyrate. The analysis for each volatile fatty acid found in the zero-time controls was substracted from the analyses of the untreated controls and of the test flasks. The resulting values reflect the amount of each VFA produced during the 16-hour fermentation period. The data below are reported as the ratio of VFA's produced in treated flasks to VFA's produced in untreated control flasks.

Another data set is described as follows: electrometric titration. Type of data set: physicochemical. Conditions: electrometric titration in 66% dimethylformamide in water. The source says: Antibiotic A41030 factor A is a white, crystalline solid.
The test system of data set [5] is Bacteroides vulgatis. Kind of data set: agar-dilution MIC. Type of data set: cell-based. Conditions: Bacteroides vulgatis 1211; Table 14.
For a further data set, the system named is Peptococcus prevoti. Briefly: agar-dilution MIC. Type of data set: cell-based.
The test system of a further data set is Enterobacter aerogenes. Briefly: agar-dilution MIC. Conditions: Enterobacter aerogenes C32; Table 17. Type of data set: cell-based. An excerpt:
The results after reading the which follows.

For data set [6], the system named is Streptococcus sp. ATCC 10389. Briefly: agar-dilution MIC. Type of data set: cell-based. The settings on record: end point after 24 hours, Table 18.
Description: as §2

A further data set deals with S. pneumoniae. Briefly: experimental bacterial infection in mice. Type of data set: in vivo. The settings on record: two doses subcutaneously. The protocol:
as §3

Where [7] appears, read: Peptostreptococcus intermedius 1264, Table 14.
The mark [8] stands for this setting: Haemophilus parainfluenzae 7901.
Setting [9] is: Haemophilus parainfluenzae 9796.
Setting [10] is: Peptococcus prevoti 1281, Table 14.

Values after ≈ are worked out from the molar mass of the structure shown. A value given as a limit tells only on which side of the number the result lay.

`NC1C(=O)NC2Cc3ccc(c(Cl)c3)Oc3cc4cc(c3O)Oc3ccc(cc3Cl)C(O)C3NC(=O)C(NC(=O)C4NC(=O)C(NC2=O)c2cc(O)cc(c2)Oc2cc1ccc2O)c1cc(Cl)c(O)c(c1)-c1c(O)cc(O)cc1C(C(=O)O)NC3=O` (stereo not shown) [A41030 factor A]: the MIC was less than 0.5 µg/mL with Streptococcus faecalis; 4.0 µg/mL (≈ 3.24 µM) with Neisseria sp. (Neisseria sp. L. Nance); 4.0 µg/mL (≈ 3.24 µM) in the data set on Neisseria sp. (Neisseria sp. Mitchell); 1.0 µg/mL (≈ 0.811 µM) against Neisseria sp. (Neisseria sp. Sanders); 8.0 µg/mL (≈ 6.49 µM) in the data set on Neisseria sp. (Neisseria sp. Schultz); 4.0 µg/mL (≈ 3.24 µM) in the data set on Neisseria sp. (Neisseria sp. Woods). Besides, the MIC against Viridans streptococcus (Viridans streptococcus SM-1134) amounted to 0.5 µg/mL (≈ 0.405 µM); in the data set with Viridans streptococcus (Viridans streptococcus SSI-910), 0.25 µg/mL (≈ 0.203 µM); in the data set on Viridans streptococcus (Viridans streptococcus SSII-895), 0.25 µg/mL (≈ 0.203 µM); against Shigella flexneri, 64 µg/mL (≈ 51.9 µM); in the data set on Bacteroides corrodens it was 32 µg/mL (≈ 25.9 µM); against Bacteroides vulgatis [1] it was 32 µg/mL (≈ 25.9 µM). The MIC is 0.5 µg/mL (≈ 0.405 µM) in the data set on Clostridium perfringens; 1.0 µg/mL (≈ 0.811 µM) in data set [2] (setting [7]); no more than 0.03 µg/mL in [2] (Ps. intermedius 1264, Table 15); 0.5 µg/mL (≈ 0.405 µM) in data set [2] (Ps. intermedius 1524, Table 15); 1.0 µg/mL (≈ 0.811 µM) in [2] (Ps. intermedius 1624, Table 15); 1.0 µg/mL (≈ 0.811 µM) in the data set with Fusobacterium symbiosum. Also, the MIC was found to be 1 µg/mL (≈ 0.811 µM) in data set [3] (Streptococcus sp. Group B 5); 0.06 µg/mL (≈ 0.0486 µM) in data set [3] (Streptococcus sp. Group B 14); 16 µg/mL (≈ 13 µM) in data set [4] (setting [8]); 16 µg/mL (≈ 13 µM) in [4] (setting [9]); 32 µg/mL (≈ 25.9 µM) against Bacteroides vulgatis [5]; 0.5 µg/mL (≈ 0.405 µM) with Peptococcus prevoti (Pc. prevoti 1281, Table 15). In the data set on Peptococcus prevoti (setting [10]), this compound yielded an MIC of no more than 0.25 µg/mL. This compound yielded an ED50 with Staph. aureus of 1.4 mg/kg. Further, the “Acetate, ratio of VFA's produced in treated flasks to untreated control flasks” value amounted to 1.01 with rumen fluid (1 mcg./ml.) and 1.03 in the data set with rumen fluid (2 mcg./ml.). Moreover, the “Butyrate, ratio of VFA's produced in treated flasks to untreated control flasks” value with rumen fluid (1 mcg./ml.) was found to be 0.66; with rumen fluid (2 mcg./ml.), 0.94. The “Propionate, ratio of VFA's produced in treated flasks to untreated control flasks” value in the data set with rumen fluid (1 mcg./ml.) stood at 1.31; in the data set with rumen fluid (2 mcg./ml.), 1.33. In addition, the “possibly additional pKa's” value in “electrometric titration” was greater than 10.5.
For `N[C@H]1C(=O)N[C@@H]2Cc3ccc(c(Cl)c3)Oc3cc4cc(c3O)Oc3ccc(cc3Cl)[C@@H](O)[C@@H]3NC(=O)C(NC(=O)[C@@H]4NC(=O)[C@@H](NC2=O)c2cc(O)cc(c2)Oc2cc1ccc2O)c1ccc(O)c(c1)-c1c(O)cc(O)cc1[C@@H](C(=O)O)NC3=O` [A41030 factor B], the MIC was 32 µg/mL (≈ 26.7 µM) with Bacteroides corrodens; 32 µg/mL (≈ 26.7 µM) with Bacteroides vulgatis [1]; 0.5 µg/mL (≈ 0.417 µM) in the data set on Clostridium perfringens; 0.5 µg/mL (≈ 0.417 µM) in [2] (setting [7]); no more than 0.03 µg/mL in data set [2] (Ps. intermedius 1264, Table 15); 0.25 µg/mL (≈ 0.209 µM) in data set [2] (Ps. intermedius 1524, Table 15). For the same compound, the MIC in data set [2] (Ps. intermedius 1624, Table 15) was 0.5 µg/mL (≈ 0.417 µM); against Fusobacterium symbiosum, 1.0 µg/mL (≈ 0.834 µM); against Enterobacter aerogenes, 64 µg/mL (≈ 53.4 µM); in data set [6], 0.25 µg/mL (≈ 0.209 µM); in data set [3] (Streptococcus sp. Group B 5), 1 µg/mL (≈ 0.834 µM); in data set [4] (setting [8]), 16 µg/mL (≈ 13.3 µM). In addition, the MIC in data set [4] (setting [9]) was 16 µg/mL (≈ 13.3 µM); against Bacteroides vulgatis [5] it was 32 µg/mL (≈ 26.7 µM); against Peptococcus prevoti (Pc. prevoti 1281, Table 15), 0.5 µg/mL (≈ 0.417 µM); against Peptococcus prevoti (setting [10]) it was no more than 0.25 µg/mL. Also, the ED50 in the data set on S. pneumoniae is 1.4 mg/kg; in the data set on Staph. aureus, less than 0.43 mg/kg. For the same compound, the “possibly additional pKa's” value in the data set “electrometric titration” is on record as greater than 10.
For A41030 factor C, the MIC is 32 µg/mL against Bacteroides corrodens; 32 µg/mL in the data set on Bacteroides vulgatis [1]; 1.0 µg/mL with Clostridium perfringens; no more than 0.03 µg/mL in data set [2] (Ps. intermedius 1264, Table 15); 1.0 µg/mL in data set [2] (Ps. intermedius 1624, Table 15); 1.0 µg/mL in the data set on Fusobacterium symbiosum. Also, the MIC is 32 µg/mL in the data set on Bacteroides vulgatis [5]; 1.0 µg/mL in the data set with Peptococcus prevoti (Pc. prevoti 1281, Table 15); no more than 0.25 µg/mL with Peptococcus prevoti (setting [10]). The figures for the median effective dose (ED50) in the data set with S. pneumoniae and with Staph. aureus were 6.7 mg/kg and less than 0.43 mg/kg, respectively. For the same compound, the “possibly additional pKa's” value in the data set “electrometric titration” is given as greater than 10.
